Assay results as given in patent US20030022813A1, “Treating pain by targeting hyperpolarization-activated, cyclic nucleotide-gated channels” (priority 2001, published 2003).
Entries after “also recorded” stand apart in the source; their conditions may differ.

Columns and labels:
human HCN1 = target: T1, human HCN1 (Homo sapiens, UniProt O60741); test: Two-electrode voltage clamp of Xenopus oocytes injected with human HCN1 cRNA; format: cell-based; details: for block of HCN1 currents: Cs+ 3 mM in ND-96
T1 construct: expressed in transfected cells; host or cells: Xenopus laevis oocytes injected with cRNA transcribed from pGEM HE-human HCN1
T1 sequence (O60741 1-890): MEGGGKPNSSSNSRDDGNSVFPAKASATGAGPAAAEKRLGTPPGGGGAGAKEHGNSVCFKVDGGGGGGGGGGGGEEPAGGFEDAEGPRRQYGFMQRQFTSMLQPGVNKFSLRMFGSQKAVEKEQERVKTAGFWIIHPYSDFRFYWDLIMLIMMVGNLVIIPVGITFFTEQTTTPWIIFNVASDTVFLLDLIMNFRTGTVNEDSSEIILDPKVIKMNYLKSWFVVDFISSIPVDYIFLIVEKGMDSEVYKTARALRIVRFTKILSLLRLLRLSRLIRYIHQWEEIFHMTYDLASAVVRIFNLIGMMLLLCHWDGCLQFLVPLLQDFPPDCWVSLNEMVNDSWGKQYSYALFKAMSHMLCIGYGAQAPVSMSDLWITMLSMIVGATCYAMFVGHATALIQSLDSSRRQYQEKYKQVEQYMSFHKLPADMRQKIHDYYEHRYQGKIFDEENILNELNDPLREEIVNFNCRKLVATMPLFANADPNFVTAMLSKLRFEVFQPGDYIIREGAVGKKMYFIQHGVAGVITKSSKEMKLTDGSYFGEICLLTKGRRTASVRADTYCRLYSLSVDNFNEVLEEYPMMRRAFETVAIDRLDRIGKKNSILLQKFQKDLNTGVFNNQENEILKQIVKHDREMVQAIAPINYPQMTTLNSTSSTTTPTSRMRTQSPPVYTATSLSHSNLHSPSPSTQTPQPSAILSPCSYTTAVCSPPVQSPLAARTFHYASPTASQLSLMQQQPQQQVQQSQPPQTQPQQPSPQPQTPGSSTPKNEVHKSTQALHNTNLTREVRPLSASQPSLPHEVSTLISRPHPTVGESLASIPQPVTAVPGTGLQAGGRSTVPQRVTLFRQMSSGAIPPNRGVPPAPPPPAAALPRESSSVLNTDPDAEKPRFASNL

human HCN3 = target: T2, human HCN3 (Homo sapiens, UniProt Q9P1Z3); test: Whole cell patch clamp of HEK293 cells stably expressing human HCN3; format: cell-based
T2 construct: expressed in transfected cells; host or cells: HEK293 cells stably transfected with hHCN3-pCDNA3.1 Zeo
T2 sequence (Q9P1Z3 1-774): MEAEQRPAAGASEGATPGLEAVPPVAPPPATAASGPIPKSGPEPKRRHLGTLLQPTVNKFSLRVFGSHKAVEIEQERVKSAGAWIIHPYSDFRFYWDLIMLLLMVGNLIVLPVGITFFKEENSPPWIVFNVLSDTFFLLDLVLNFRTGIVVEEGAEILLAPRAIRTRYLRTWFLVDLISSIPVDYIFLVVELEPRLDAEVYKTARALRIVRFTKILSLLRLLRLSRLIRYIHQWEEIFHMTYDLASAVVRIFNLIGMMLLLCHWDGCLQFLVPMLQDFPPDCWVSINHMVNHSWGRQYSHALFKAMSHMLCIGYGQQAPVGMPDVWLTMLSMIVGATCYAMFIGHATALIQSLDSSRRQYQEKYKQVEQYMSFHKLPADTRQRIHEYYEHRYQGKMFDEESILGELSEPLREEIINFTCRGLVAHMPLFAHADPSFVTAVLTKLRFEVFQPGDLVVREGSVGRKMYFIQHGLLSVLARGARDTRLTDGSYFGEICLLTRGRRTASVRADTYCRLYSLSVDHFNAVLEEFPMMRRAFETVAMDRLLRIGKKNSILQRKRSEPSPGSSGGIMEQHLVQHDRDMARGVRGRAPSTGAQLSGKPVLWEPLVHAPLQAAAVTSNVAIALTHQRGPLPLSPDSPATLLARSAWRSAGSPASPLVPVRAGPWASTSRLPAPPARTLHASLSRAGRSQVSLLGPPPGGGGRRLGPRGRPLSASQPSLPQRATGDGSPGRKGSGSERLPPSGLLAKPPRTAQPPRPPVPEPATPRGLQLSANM

Ih in large DRG neurons = test: Whole cell patch clamp of Ih in acutely dissociated large L5 DRG neurons of SNL and control rats; format: cell-based, rat
Ih = details: applied intracellularly at 5 or 10 mM; cited from earlier work
[1] = test system: spontaneous firing of injured primary afferents (Aβ and Aδ fibers); test: In vitro single fiber recording of spontaneous (ectopic) discharges in excised dorsal root/DRG/spinal nerve preparations from SNL rats; design: species or system rat
normal rats = test: 55° C. hot plate test (latency to paw lick), acute thermally induced pain; format: in vivo, rat; details: 10 mg/kg i.p.
Procedure: A cutoff of 20 seconds of thermal surface exposure was employed to prevent tissue damage. Drug administration: Normal rats were administered ZD7288, 10 mg/kg, or an equivalent volume of saline, i.p. at time 0. Behavioral assessments were performed at 45, 60 and 75 minutes after drug administration.

CFA-injected rats = test: Tactile allodynia in the complete Freund's adjuvant (CFA) paw model of inflammatory pain; format: in vivo, rat
SNL rats = test: Tactile allodynia (von Frey 50% paw withdrawal threshold) in the SNL (Chung) neuropathic pain model; format: in vivo, rat; details: i.p.
Procedure: Preparation of SNL (spinal nerve ligation) model: All studies were conducted in keeping with the guidelines of the Institutional Animal Care Committees of the University of California, San Diego and RWJPRI. Male Harlan Sprague-Dawley rats, 100-150 g, were housed in cages with solid bottoms and sawdust bedding, with a 12/12 h reversed light cycle (lights on 2100-900), and allowed free access to food pellets and water. Animals were housed in groups of 2 after surgical interventions. A surgical neuropathy was created as follows, to create a model commonly referred to as the SNL, or spinal nerve ligation model, also commonly referred to as the Chung model. Under isoflurane/oxygen anesthesia, a dorsal midline incision was made from approximately L3-S2. Using a mixture of sharp and blunt dissection, the left L6/S1 posterior interarticular process was exposed and resected to permit adequate visualization of the L6 transverse process, which was gently removed. Careful teasing of the underlying fascia exposed the left L4 and L5 spinal nerves distal to their emergence from the intervertebral foramina. The nerves were gently separated, and the L5 and in some cases either the L4 (for in vitro electrophysiology recordings) or the L6 nerve firmly ligated with 6-0 silk suture material. The wound was then inspected for hemostasis and closed in two layers. Animals with thresholds greater than 4 g were considered unsuccessful preparations(Chaplan et al., (1994) Journal of Neuroscience Methods 53: 55-63).
Behavioral assessment: Behavioral signs of allodynia were documented as follows. Briefly, rats were transferred to a testing cage with a wire mesh bottom and allowed to acclimate for 10-15 minutes. […] Lifting of the paw was recorded as a positive response and the next lightest filament chosen for the next measurement. […]

[2] = test system: rat mild thermal injury model; test: Spontaneous pain behaviors in the rat mild thermal injury (first-degree burn) model; details: for suppression of spontaneous pain behaviors: 30 and 60 min; for adverse behavioral effects: morphine 3 mg/kg or ZD7288 10 mg/kg i.p.
[3] = test system: preclinical models of neuropathic pain; details: cited from earlier work
[4] = test system: ectopic firing in injured peripheral nerves; details: systemically administered; cited from earlier work
[5] = test system: native Ih in normal rat L4 dorsal root ganglion neurons; test: Whole cell patch clamp of native Ih in dissociated L4 DRG neurons of uninjured rats (lidocaine); format: cell-based; details: bath-applied at neutral pH
Procedure: Lidocaine was tested for its effect on Ih expressed in dissociated L4 dorsal root ganglion neurons from uninjured rats to determine whether this well known Na channel blocker could have other mechanisms of action.
DRG were extirpated, dissociated and cultured 3-4 days on poly-D-lysine coated coverslips as described in Example 10. Ih was measured using the whole cell configuration of the patch clamp technique according to the methods described in Example 10 with the exception that the pipette solution was the solution used in Example 3. Neurons were challenged with a family of hyperpolarizing voltage pulses (−60 mV to −150 mV in increments of 10 mV) from a holding potential of −50 mV. Ih was determined at the end of 600 msec duration test pulses. Lidocaine was bath-applied at neutral pH and the percent inhibition of control Ih was determined after lidocaine achieved steady state block. Plotted is the steady state current observed at −134 mV as a percent of control after incubation of lidocaine at the indicated concentrations. […] Lidocaine block was reversible. Data were obtained from 3 cells having control Ih densities of −1.5, −2.0 and −2.2 pA/pF.

SMILES: [Cl-].[Cs+] [Cs^+, CsCl]
- effect on endogenous inward currents of oocytes (human HCN1; Cs+ 3 mM): no effect
- block of HCN1 currents (human HCN1; Ih evoked by stepping to −80 mV, n=3): 94%
- block of HCN1 currents (human HCN1; Ih evoked by stepping to −100 mV, n=3): 92%
- block of HCN1 currents (human HCN1; Ih evoked by stepping to −120 mV, n=3): 90%
- block of low threshold inward currents in HCN1-injected oocytes, reversibility (human HCN1; Cs+ 3 mM, n=3): reversibly blocked
- block of hyperpolarization-induced inward currents (Ih) (human HCN3; 3 mM CsCl): completely blocked
- reversibility of effect on HCN3 currents (human HCN3; Cs+ 3 mM): rapidly reversible
- block of Ih in large DRG neurons (Ih in large DRG neurons; extracellular Cs+ 3 mM): efficacious block

SMILES: CC[N+](CC)(CC)CC(=O)Nc1c(C)cccc1C [QX-314]
- block of Ih (Ih): blocks Ih

SMILES: CCN(c1ccccc1)c1cc(=NC)n(C)c(C)n1.Cl [ZD7288]
- effect on spontaneous firing of Aδ fiber ([1]; 100 micromolar): attenuation of firing
- time to complete suppression of ectopic firing, typical Aβ fiber ([1]; 100 micromolar): 3 to 4 min
- conduction blockade of evoked action potentials ([1]; after application of ZD7288): no conduction blockade
- suppression of spontaneous discharges of Aβ fibers ([1]; bath application 100 μM for 5 min): complete suppression; also recorded: completely suppressed
- cells with no detectable Ih after previous bath exposure and wash (human HCN3; ZD7288 50 μM, subsequently washed, previously 6 of 6 cells expressed Ih): 3 of 3
- block of hyperpolarization-induced inward currents (Ih) (human HCN3; ZD7288 50 μM, n=3): 98+/−2%
- reversibility of effect on HCN3 currents (human HCN3; ZD7288 50 μM, washout period of at least 15 min): did not reverse
- effect on acute thermally-evoked pain (normal rats): minimal effect
- difference from saline in hot plate latency (normal rats; 45 or 60 min): No statistically significant difference
- difference from saline in hot plate latency (normal rats; 75 min, statistically significant, minor): approximately 15%
- suppression of CFA-induced tactile allodynia (CFA-injected rats; ZD7288 10 mg/kg i.p., 10 mg/kg): suppressed allodynia; also recorded: markedly suppressed
- efficacy of suppression of allodynic responses (% MPE) (SNL rats): 75.7+/−15.4%
- suppression of tactile allodynia (SNL rats; 1, 3, 10 mg/kg): suppressed allodynic responses in a dose-dependent manner; also recorded: blocked in a dose dependent manner; also recorded: suppressed the tactile allodynia
- behavioral adverse effects / motor function (SNL rats; up to 10 mg/kg): No untoward behavioral effects; also recorded: normal motor function; also recorded: without overt adverse effects on behavior
- block of Ih in large DRG neurons (Ih in large DRG neurons; ZD7288 50 μM): efficacious block
- suppression of spontaneous pain behaviors ([2]; ZD7288 10 mg/kg i.p., 10 mg/kg): near complete suppression; also recorded: suppressed spontaneous pain
- adverse behavioral effects [2]: No adverse behavioral effects

SMILES: CCCCN1CCCCC1C(=O)Nc1c(C)cccc1C (centres unmarked) [bupivacaine]
- anti-hyperalgesic activity [3]: does not possess any anti-hyperalgesic activity

SMILES: NCC1(CC(=O)O)CCCCC1 [gabapentin]
- suppression of CFA-induced tactile allodynia (CFA-injected rats; gabapentin 100 mg/kg i.p.): not

SMILES: CC(C)Cc1ccc(C(C)C(=O)O)cc1 (centres unmarked) [ibuprofen]
- suppression of CFA-induced tactile allodynia (CFA-injected rats; ibuprofen 30 mg/kg i.p.): suppressed
- suppression of CFA-induced tactile allodynia (CFA-injected rats; ibuprofen 30 mg/kg i.p., listed as Ibuprofen): some efficacy

SMILES: CCN(CC)CC(=O)Nc1c(C)cccc1C [lidocaine]
- effect on ectopic firing in injured peripheral nerves [4]: stops the ectopic firing
- reversibility of block of Ih [5]: reversible

SMILES: CN1CC[C@]23c4c5ccc(O)c4O[C@H]2[C@@H](O)C=C[C@H]3[C@H]1C5 [morphine]
- suppression of CFA-induced tactile allodynia (CFA-injected rats; morphine 3 mg/kg i.p.): suppressed
- suppression of spontaneous pain behaviors ([2]; morphine 3 mg/kg i.p.): near complete suppression; also recorded: suppressed spontaneous pain
- adverse behavioral effects [2]: No adverse behavioral effects
